A value given as a limit tells only on which side of the number the result lay.

One test has as its system DLD-1. The test is described as follows: Cytotoxicity against human DLD1 cells assessed as growth inhibition. It counts as functional, cell-based.
In test [1] the test system is HeLa. The test is described as follows: Cytotoxicity against human HeLa cells assessed as growth inhibition. In kind it is functional, cell-based.
Test [2] concerns A2780. The test is described as follows: Resistance factor, ratio of IC50 for multidrug-resistant human A2780AD cells overexpressing p-gp to IC50 for human A2780 cells. It counts as functional.
The subject of test [3] is HeLa. The test is described as follows: Cytotoxicity against human HeLa cells harboring class 3 beta tubulin mutant assessed as growth inhibition. In kind it is functional, cell-based.
The test system of test [4] is HeLa. The test is described as follows: Resistance factor, ratio of IC50 for human HeLa cells harboring class 3 beta tubulin mutant to IC50 for human HeLa cells. It counts as functional.
The subject of test [5] is A2780. Briefly: Cytotoxicity against human A2780 cells assessed as growth inhibition. In kind it is functional, cell-based.
The nature of test [6]: Cytotoxicity against multidrug-resistant human A2780AD cells overexpressing p-gp assessed as growth inhibition. It counts as functional, cell-based. Particulars: A2780 ADR.

As for `COc1cc2c(c(OC)c1OC)-c1ccc(NCCN)c(=O)cc1[C@@H](NC(C)=O)CC2`, in the test on DLD-1, the concentration for half-maximal inhibition (IC50) was 0.9 µM.
Same read-out and setting: with `COc1cc2c(c(OC)c1OC)-c1ccc(NCCCCCCN)c(=O)cc1[C@@H](NC(C)=O)CC2` the figure was over 10 µM.
With `CNCCNc1ccc2c(cc1=O)[C@@H](NC(C)=O)CCc1cc(OC)c(OC)c(OC)c1-2`, the IC50 with HeLa [1] amounted to 0.586 µM; in the test on HeLa [3], 0.554 µM; in the test on DLD-1 it was 0.13 µM; in the test on A2780 [5], 0.502 µM; in test [6], 0.784 µM. Further, the “Ratio IC50” value was determined as 1.6 in the test on A2780 [2] and 0.95 in the test with HeLa [4].
Take `COc1cc2c(c(OC)c1OC)-c1ccc(NCCO)c(=O)cc1[C@@H](NC(C)=O)CC2`: the IC50 in the test on HeLa [1] was determined as 0.192 µM; with HeLa [3] it was 0.164 µM; in the test on DLD-1, 0.0692 µM; in the test on A2780 [5], 0.0711 µM; in test [6] it was 0.241 µM. In addition, the “Ratio IC50” value in the test on A2780 [2] was 3.3; in the test with HeLa [4] it was 0.85.
Regarding `COc1cc2c(c(OC)c1OC)-c1ccc(NCCN(C)C(=O)OC(C)(C)C)c(=O)cc1[C@@H](NC(C)=O)CC2`, the IC50 with DLD-1 was over 10 µM.
The same measure, in the same setting: with `COc1cc2c(c(OC)c1OC)-c1ccc(NCCN3CCC[C@@H]3CO)c(=O)cc1[C@@H](NC(C)=O)CC2` the figure was over 10 µM; with `COc1cc2c(c(OC)c1OC)-c1ccc(NCCN3CCC[C@H]3CO)c(=O)cc1[C@@H](NC(C)=O)CC2`, over 10 µM.
The same measure, in the same setting: with `COc1cc2c(c(OC)c1OC)-c1ccc(NCCCCCCN3CCCC(O)C3)c(=O)cc1[C@@H](NC(C)=O)CC2` (mixture of isomers) the figure was over 10 µM; with `COc1cc2c(c(OC)c1OC)-c1ccc(NCCN3CCCC(O)C3)c(=O)cc1[C@@H](NC(C)=O)CC2` (mixture of isomers), 8.1 µM.
As for `COc1cc2c(c(OC)c1OC)-c1ccc(OC)c(=O)cc1[C@@H](NC(C)=O)CC2` [COLCHICINE], the half-inhibitory concentration (IC50) in the test with HeLa [1] worked out at 0.0082 µM; in the test on HeLa [3], 0.0097 µM; in the test on DLD-1 it was 0.0455 µM; with A2780 [5], 0.0067 µM; in test [6], 0.0168 µM. Moreover, the “Ratio IC50” value with A2780 [2] amounted to 2.5; with HeLa [4] it was 1.2.
As to `CC(=O)O[C@H]1C(=O)[C@@]2(C)[C@H]([C@H](OC(=O)c3ccccc3)[C@]3(O)C[C@H](OC(=O)[C@H](O)[C@@H](NC(=O)c4ccccc4)c4ccccc4)C(C)=C1C3(C)C)[C@]1(OC(C)=O)CO[C@@H]1C[C@@H]2O` [PACLITAXEL], the IC50 in the test on HeLa [3] is 0.0112 µM; with A2780 [5], 1.1 µM; in test [6] it was over 1 µM.

Broadly, the IC50 is the point on the concentration scale where inhibition reaches its midpoint.

The values above are taken from ChEMBL document CHEMBL2203080, “Synthesis and biological evaluation of colchicine C-ring analogues tethered with aliphatic linkers suitable for prodrug derivatisation” (Bioorg Med Chem Lett, 2012).
